Test results taken from patent US9493396B2, “Substituted naphthalene compounds as calcium sensing receptor modulators” (LUPIN ATLANTIS HOLDINGS SA, priority 2013, dated 2016).
Structures can show the parent of a compound that is named as a salt.

Target: T1, Calcium sensing receptor (hCaSR) (Homo sapiens, UniProt P41180)
T1 construct: expressed in transfected cells; host or cells: HEK293 (stably transfected)
T1 sequence (P41180 20-1078): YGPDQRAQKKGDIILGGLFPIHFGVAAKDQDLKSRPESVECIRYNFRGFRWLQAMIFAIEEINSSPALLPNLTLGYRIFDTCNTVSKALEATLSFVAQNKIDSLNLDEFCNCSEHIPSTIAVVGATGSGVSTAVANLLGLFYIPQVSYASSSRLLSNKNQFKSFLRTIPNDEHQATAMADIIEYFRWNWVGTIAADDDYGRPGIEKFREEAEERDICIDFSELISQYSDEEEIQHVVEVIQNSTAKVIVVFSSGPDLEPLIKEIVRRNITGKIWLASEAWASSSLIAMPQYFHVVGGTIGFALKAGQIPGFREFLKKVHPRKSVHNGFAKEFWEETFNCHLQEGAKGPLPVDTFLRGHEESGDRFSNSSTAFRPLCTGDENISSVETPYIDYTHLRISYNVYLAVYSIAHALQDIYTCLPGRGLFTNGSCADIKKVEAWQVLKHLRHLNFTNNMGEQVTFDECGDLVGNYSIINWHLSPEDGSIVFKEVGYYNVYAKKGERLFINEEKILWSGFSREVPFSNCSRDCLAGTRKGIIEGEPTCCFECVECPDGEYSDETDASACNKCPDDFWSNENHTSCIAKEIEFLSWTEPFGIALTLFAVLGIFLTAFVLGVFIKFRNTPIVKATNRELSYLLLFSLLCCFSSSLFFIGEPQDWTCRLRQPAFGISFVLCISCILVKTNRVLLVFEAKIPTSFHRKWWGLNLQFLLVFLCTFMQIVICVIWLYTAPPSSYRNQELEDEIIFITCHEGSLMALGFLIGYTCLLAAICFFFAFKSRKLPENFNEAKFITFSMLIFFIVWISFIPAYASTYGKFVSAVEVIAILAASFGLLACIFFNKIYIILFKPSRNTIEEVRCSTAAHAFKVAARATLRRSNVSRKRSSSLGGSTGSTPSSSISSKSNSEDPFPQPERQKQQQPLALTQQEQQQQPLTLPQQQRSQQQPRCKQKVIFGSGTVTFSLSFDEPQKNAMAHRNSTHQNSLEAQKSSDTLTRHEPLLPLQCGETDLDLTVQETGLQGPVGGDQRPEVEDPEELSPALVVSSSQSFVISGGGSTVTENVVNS
Test: In-vitro assay of calcimimetics through modulation of calcium sensing receptor (intracellular calcium increase, FLIPR)
Assay type: cell-based
Settings: stably transfected HEK293 cells expressing hCaSR; Fluo4NW dye; 0.3 mM CaCl2; 8-point assay; read-out: EC50 in range
Experimental: In-Vitro Assay Method of Calcimimetics Through Modulation of Calcium Sensing Receptor (CaSR): The ability of the compounds to modulate Calcium sensing receptor is determined by measuring an increase in intracellular calcium [Ca^2+]i. Stably transfected HEK293 cells expressing hCaSR_pTriEx-3 hygro vector are developed. Cells are grown overnight on a 96-well plate to 80% confluency in Ham's F12 containing 20% FBS at 37° C., 5% CO2. Subsequently, cells are washed extensively with 20 mM HEPES buffer containing 126 mM […], 1 mM MgCl2 and 4 mM KCl to remove serum components that might interfere with the assay. Cells are loaded with calcium sensing Fluo4NW dye in HEPES base buffer containing 0.1% BSA and 1 mg/ml glucose for 30 minutes to measure changes in intracellular calcium. The activities of the compounds are measured in FLIPR using 0.3 mM CaCl2 in 20 mM HEPES base buffer. The effectiveness of the compound to modulate receptor activity is determined by calculating the EC50 responses for that compound in an 8-point assay and plotted using GraphPad Prism 5.

Row | Structure (SMILES) | EC50
1 | COc1cccc([C@@H](C)NC(C)c2cc(-c3ccc(S(C)(=O)=O)cc3)c3ccccc3c2)c1 (stereo partly drawn) [Example 17, (1R)-1-(3-Methoxyphenyl)-N-(1-(4-(4-(methylsulfonyl)phenyl)naphthalen-2-yl)ethyl)ethanamine hydrochloride] | 50 to 400 nM
2 | Cc1ccc(-c2cc(CN[C@H](C)c3cccc(OCC(F)F)c3)cc3ccccc23)cc1C(=O)O [Example 95, (R)-5-(3-(((1-(3-(2,2-Difluoroethoxy)phenyl)ethyl)amino)methyl)naphthalen-1-yl)-2-methylbenzoic acid hydrochloride] | 50 to 400 nM
3 | COc1cc([C@@H](C)NCc2cc(-c3cccc(C(F)(F)F)c3)c3ccccc3c2)ccc1F [Example 4, (R)-1-(4-Fluoro-3-methoxyphenyl)-N-((4-(3-(trifluoromethyl)phenyl)naphthalen-2-yl)methyl)ethanamine hydrochloride] | 20 to 50 nM
4 | CC(N[C@H](C)c1cccc(Cl)c1)c1cc(-c2cccc(C(F)(F)F)c2)c2ccccc2c1 (stereo partly drawn) [Example 14, (1R)-1-(3-Chlorophenyl)-N-(1-(4-(3-(trifluoromethyl)phenyl)naphthalen-2-yl)ethyl)ethanamine hydrochloride] | < 20 nM
5 | COc1cc([C@@H](C)NC(C)c2cc(-c3ccc(C)c(C(=O)O)c3)c3ccccc3c2)ccc1F (stereo partly drawn) [Example 115, 5-(3-(1-(((R)-1-(4-Fluoro-3-methoxyphenyl)ethyl)amino)ethyl)naphthalen-1-yl)-2-methylbenzoic acid hydrochloride] | 50 to 400 nM
6 | CCCOc1cccc([C@@H](C)NCc2cc(-c3ccc(C)c(C(=O)O)c3)c3ccccc3c2)c1 [Example 92, (R)-2-Methyl-5-(3-(((1-(3-propoxyphenyl)ethyl)amino)methyl)naphthalen-1-yl)benzoic acid hydrochloride] | 50 to 400 nM
7 | COc1cccc([C@@H](C)NCCCc2cc(-c3ccc(C(F)(F)F)cc3)c3ccccc3c2)c1 [Example 5, (R)-N-(1-(3-Methoxyphenyl)ethyl)-3-(4-(4-(trifluoromethyl)phenyl)naphthalen-2-yl)propan-1-amine hydrochloride] | 20 to 50 nM
8 | Cc1ccc(-c2cc(CN[C@H](C)c3cccc(Cl)c3)cc3ccccc23)cc1C(=O)O [Example 94, (R)-5-(3-(((1-(3-Chlorophenyl)ethyl)amino)methyl)naphthalen-1-yl)-2-methylbenzoic acid hydrochloride] | 50 to 400 nM
9 | COc1cccc([C@@H](C)NC(C)c2cc(-c3ccc(OC(F)F)cc3)c3ccccc3c2)c1 (stereo partly drawn) [Example 21, 1-(4-(4-(Difluoromethoxy)phenyl)naphthalen-2-yl)-N-((R)-1-(3-methoxyphenyl)ethyl)ethanamine hydrochloride] | < 20 nM
10 | COc1cccc([C@@H](C)NC(C)c2cc(-c3ccc(C(=O)O)cc3F)c3ccccc3c2)c1 (stereo partly drawn) [Example 120, 3-Fluoro-4-(3-(1-(((R)-1-(3-methoxyphenyl)ethyl)amino)ethyl)naphthalen-1-yl)benzoic acid hydrochloride] | < 20 nM
11 | COC(=O)c1cc(-c2cc(CN[C@H](C)c3cccc(OC)c3)cc3ccccc23)ccc1F [Example 45, (R)-methyl 2-fluoro-5-(3-(((1-(3-methoxyphenyl)ethyl)amino)methyl)naphthalen-1-yl)benzoate hydrochloride] | < 20 nM
12 | CC(N[C@H](C)c1cccc(F)c1)c1cc(-c2ccc(C(F)(F)F)cc2)c2ccccc2c1 (stereo partly drawn) [Example 13, (1R)-1-(3-Fluorophenyl)-N-(1-(4-(4-(trifluoromethyl)phenyl)naphthalen-2-yl)ethyl)ethanamine hydrochloride] | < 20 nM

Further lines, results first:

Row | EC50 | Structure (SMILES)
13 | 20 to 50 nM | COc1cccc([C@@H](C)NC(C)c2cc(-c3ccc(C(=O)O)c(C(F)(F)F)c3)c3ccccc3c2)c1 (stereo partly drawn) [Example 124, 4-(3-(1-(((R)-1-(3-Methoxyphenyl)ethyl)amino)ethyl)naphthalen-1-yl)-2-(trifluoromethyl) benzoic acid hydrochloride]
14 | 50 to 400 nM | COc1cc(C(=O)O)cc(-c2cc(C(C)N[C@H](C)c3cccc(OC)c3)cc3ccccc23)c1 (stereo partly drawn) [Example 150, 3-Methoxy-5-(3-(1-(((R)-1-(3-methoxyphenyl)ethyl)amino)ethyl)naphthalen-1-yl)benzoic acid hydrochloride]
15 | < 20 nM | CCOc1cccc([C@@H](C)NC(C)c2cc(-c3ccc(F)c(C(=O)O)c3)c3ccccc3c2)c1 (stereo partly drawn) [Example 126, 5-(3-(1-(((R)-1-(3-Ethoxyphenyl)ethyl)amino)ethyl)naphthalen-1-yl)-2-fluorobenzoic acid hydrochloride]
16 | 50 to 400 nM | CC(N[C@H](C)c1cccc(Cl)c1)c1cc(-c2ccc(S(C)(=O)=O)cc2)c2ccccc2c1 (stereo partly drawn) [Example 159, (1R)-1-(3-Chlorophenyl)-N-(1-(4-(4-(methylsulfonyl)phenyl)naphthalen-2-yl)ethyl)ethanamine hydrochloride]
17 | 50 to 400 nM | COc1cccc([C@@H](C)NC(C)c2cc(-c3ccc(C(C)(C)C(=O)O)cc3)c3ccccc3c2)c1 (stereo partly drawn) [Example 138, 2-(4-(3-(1-(((R)-1-(3-Methoxyphenyl)ethyl)amino)ethyl)naphthalen-1-yl)phenyl)-2-methylpropanoic acid hydrochloride]
18 | 50 to 400 nM | COc1cccc([C@@H](C)NC(C)c2cc(-c3cc(F)cc(OC(C)(C)C(=O)O)c3)c3ccccc3c2)c1 (stereo partly drawn) [Example 151, 2-(3-Fluoro-5-(3-(1-(((R)-1-(3-methoxyphenyl)ethyl)amino)ethyl)naphthalen-1-yl)phenoxy)-2-methylpropanoic acid hydrochloride]
19 | < 20 nM | COc1cccc([C@@H](C)NC(C)c2cc(-c3cc(F)cc(N4CCOCC4)c3)c3ccccc3c2)c1 (stereo partly drawn) [Example 161, 1-(4-(3-Fluoro-5-morpholinophenyl)naphthalen-2-yl)-N-((R)-1-(3-methoxyphenyl)ethyl)ethanamine hydrochloride]
20 | < 20 nM | COc1cccc([C@@H](C)NC(C)c2cc(-c3ccc(F)c(CCC(=O)O)c3)c3ccccc3c2)c1 (stereo partly drawn) [Example 122, 3-(2-Fluoro-5-(3-(1-(((R)-1-(3-methoxyphenyl)ethyl)amino)ethyl)naphthalen-1-yl)phenyl)propanoic acid hydrochloride]
21 | < 20 nM | COC(=O)c1cc(-c2cc(CN[C@H](C)c3cccc(OC)c3)cc3ccccc23)ccc1C [Example 155, (R)-Methyl 5-(3-(((1-(3-methoxyphenyl)ethyl)amino)methyl)naphthalen-1-yl)-2-methylbenzoate hydrochloride]
22 | 20 to 50 nM | COc1cc(F)cc(C(C)NC(C)c2cc(-c3ccc(C(F)(F)F)cc3)c3ccccc3c2)c1 (single isomer, unassigned) [Example 163b, 1-(3-Fluoro-5-methoxyphenyl)-N-(1-(4-(4-(trifluoromethyl)phenyl)naphthalen-2-yl)ethyl)ethanamine hydrochloride]
23 | 50 to 400 nM | CC(N[C@H](C)c1cccc(Cl)c1)c1cc(-c2ccc(C(F)(F)F)c(CCC(=O)O)c2)c2ccccc2c1 (stereo partly drawn) [Example 146, 3-(5-(3-(1-(((R)-1-(3-Chlorophenyl)ethyl)amino)ethyl)naphthalen-1-yl)-2-(trifluoromethyl)phenyl)propanoic acid hydrochloride]
24 | 50 to 400 nM | COc1cccc([C@@H](C)NC(C)c2cc(-c3ccc(C(=O)O)c(F)c3)c3ccccc3c2)c1 (stereo partly drawn) [Example 132, 2-Fluoro-4-(3-(1-(((R)-1-(3-methoxyphenyl)ethyl)amino)ethyl)naphthalen-1-yl)benzoic acid hydrochloride]
25 | < 20 nM | COc1cccc([C@@H](C)NC(C)c2cc(-c3ccc(Cl)c(C(=O)O)c3)c3ccccc3c2)c1 (stereo partly drawn) [Example 133, 2-Chloro-5-(3-(1-(((R)-1-(3-methoxyphenyl)ethyl)amino)ethyl)naphthalen-1-yl)benzoic acid hydrochloride]
